Laboratory results: PubChem BioAssay AID1259427 (Fisher Drug Discovery Resource Center, 2018)
The source made the active and inactive calls.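 The calls were made as follows: active = EC50 at or below a set limit, with no effect in the paired counter-screen assay; inactive = the rest.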

Target: Aedes aegypti neuropeptide Y-like receptor 7 (NPYLR7)
Assay: agonists of mosquito NPYLR7 receptor, confirmation, cell-based, Aedes aegypti, hit validation, mosquito biting behavior (AID 1259427);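 also: potency of agonists that activate the receptor and raise the calcium signal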
Conditions: HEK293T NPYLR7/Galpha15/GCaMP6s, calcium fluorescence

| EC50 | Structure (SMILES) |
| --- | --- |
| inactive | CSc1nc(N)c2ncn([C@@H]3O[C@H](COP(=O)(O)OP(=O)(O)OP(=O)(O)O)[C@H](O)C3O)c2n1 (some centres undefined) |
| > 20 µM (inactive) | Clc1cccc2ccc(CN3CCn4cncc4C3)nc12 |
| > 20 µM (inactive) | COc1ccc(-c2cccc(-c3ccc(NC(=O)c4oc5ccccc5c4C)cc3)n2)cc1 |
| > 20 µM (inactive) | CCCS(=O)(=O)N1CCN=C1SCc1ccccc1C |
| > 20 µM (inactive) | Cc1ccc(CN(Cc2ccc(F)cc2)C(=O)CNCCN2CCOCC2)s1 |
| > 20 µM (inactive) | CCC(C)n1cc(/C=C2/C(=O)NC(=O)N(c3ccc4c(c3)OCO4)C2=O)c2ccccc21 (centres undefined) |
| inactive | COc1ccccc1N=c1oc2cc(O)ccc2cc1-c1nc2ccccc2[nH]1 |
| > 20 µM (inactive) | N#CC1C(=N)Oc2cc(N)ccc2C1c1c(Cl)cccc1Cl (centres undefined) |
| inactive | C#CCN1C(=O)SC(=Cc2ccc(N3CCCCC3)o2)C1=O |
| > 20 µM (inactive) | COc1cccc(CN2C(=O)c3cccc(N)c3C2=O)c1 |
| < 0.039 µM (inactive) | Cn1c(C(C#N)=Cc2c(F)c(F)c(F)c(F)c2F)nc2ccccc21 |
| inactive | COc1cc(C=C2C=c3c(O)cccc3=C2O)cc(Cl)c1O |
| > 20 µM (inactive) | COC(=O)C1CCN(S(=O)(=O)c2c(F)cc(F)cc2Br)CC1 |
| < 0.039 µM (inactive) | CCOC(=O)c1ccccc1-c1c2ccc(=N)cc-2oc2cc(N)ccc12 |
| > 20 µM (inactive) | Cc1ccc2c(c1)CCCN2CC(=O)N(CCC(N)=O)c1ccccc1 |
| > 20 µM (inactive) | CC1CN(c2ccc(/C=C(\C#N)c3nc4ccccc4[nH]3)o2)CC(C)O1 (centres undefined) |
| < 0.039 µM (inactive) | C[n+]1c2cc(N)ccc2cc2ccc(N)cc21 |
| > 20 µM (inactive) | CCN1CCN(Cc2c(O)cc(C)c3c2O/C(=C\c2ccco2)C3=O)CC1 |
| inactive | NCCNc1ccc2c3c(cccc13)C(=O)N(c1ccc(Cl)cc1)C2=O |
| 14.9 µM | CC(C)(C)c1cnc(CSc2cnc(NC(=O)C3CCNCC3)s2)o1 |
| > 20 µM (inactive) | Cc1oc(-c2cccc(NC(=O)CC(C)C)c2)nc1CNC(=O)Cc1cc(F)cc(F)c1 |
| > 20 µM (inactive) | Cc1ccc(NC2C=CS(=O)(=O)C2)cc1C (centres undefined) |
| > 20 µM (inactive) | CCN1CCc2c(sc(NC(=O)COc3ccccc3)c2-c2nc3ccccc3s2)C1 |
| > 20 µM (inactive) | CCOC(=O)C1CCN(C(=O)CC(c2cccc(C(F)(F)F)c2)c2c[nH]c3c(CC)cccc23)CC1 (centres undefined) |
| 19.5 µM | COc1ccc(OC)c(CCNc2nc3cnc(-c4ccc(Cl)cc4)cc3n2C)c1 |
| > 20 µM (inactive) | O=C(c1nccc2ccccc12)N1CCN(CC2CCCC2)CC1 |
| inactive | CCOc1cc(/C=C2\C(=N)N3N=CSC3=NC2=O)cc(Br)c1OC(=O)c1ccccc1 |
| > 20 µM (inactive) | O=c1[nH]c(CCl)nc2sc3c(c12)CCN(Cc1ccccc1)C3 |
| > 20 µM (inactive) | COc1ccccc1OCCCOc1ccc(Br)cc1Cl |
